Patent US9174992B2, “Heterobicyclic compounds” (Amgen Inc., priority 2012, dated 2015)

Biological target: PDE10A (UniProt Q9Y233)
Experiment: PDE10 enzyme inhibition, IMAP TR-FRET assay (Example A, MPDE10A7 Enzyme Activity and Inhibition)
Format: biochemical
Details: approximate IC50 value, Table 10
Procedure, shortened: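 Compounds were preincubated 60 min at room temperature with PDE10A enzyme or tissue homogenate, then fluorescein-labeled cAMP or cGMP was added for 90 min. After stopping with IMAP binding reagents, TR-FRET was read and IC50s were fitted with a four-parameter logistic equation.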

Row | IC50 [nM] | SMILES
1 | 17.9 | O=c1[nH]c2cccnc2n1[C@H]1C[C@H](Nc2ccc3ccc(F)cc3n2)C1 [Example 101, 3-(trans-3-((7-fluoroquinolin-2-yl)amino)cyclobutyl)-1H-imidazo[4,5-b]pyridin-2(3H)-one]
2 | 25.6 | O=c1[nH]c2cccnc2n1[C@H]1C[C@H](Nc2ncc3ccccc3n2)C1 [Example 102, 3-(trans-3-(quinazolin-2-ylamino)cyclobutyl)-1H-imidazo[4,5-b]pyridin-2(3H)-one]
3 | 26.6 | O=c1[nH]c2cccnc2n1[C@H]1C[C@@H](Nc2nc3ccccc3s2)C1 [Example 103, 3-(cis-3-(benzo[d]thiazol-2-ylamino)cyclobutyl)-1H-imidazo[4,5-b]pyridin-2(3H)-one]
4 | 31.4 | O=c1[nH]c2cccnc2n1[C@H]1CC[C@H](Nc2nc3ccccc3s2)CC1 [Example 104]
5 | 35.5 | COc1ccc2ccc(N[C@H]3C[C@H](n4c(=O)[nH]c5cccnc54)C3)nc2c1 [Example 105, 3-(trans-3-((7-methoxyquinolin-2-yl)amino)cyclobutyl)-1H-imidazo[4,5-b]pyridin-2(3H)-one]
6 | 43.1 | Cn1c(=O)n([C@H]2C[C@@H](N(C)c3nc4ccccc4s3)C2)c2ncccc21 [Example 106, 3-(cis-3-(benzo[d]thiazol-2-yl(methyl)amino)cyclobutyl)-1-methyl-1H-imidazo[4,5-b]pyridin-2(3H)-one]
7 | 152 | O=c1[nH]c2cccnc2n1[C@H]1CC[C@H](Nc2nc3cc(F)ccc3s2)CC1 [Example 107, 3-(trans-4-((5-fluorobenzo[d]thiazol-2-yl)amino)cyclohexyl)-1H-imidazo[4,5-b]pyridin-2(3H)-one]
8 | 266 | O=c1[nH]c2cccnc2n1[C@H]1CC[C@H](Nc2ccc3ccccc3n2)CC1 [Example 108, 3-(trans-4-(quinolin-2-ylamino)cyclohexyl)-1H-imidazo[4,5-b]pyridin-2(3H)-one]
9 | 339 | O=c1[nH]c2cccnc2n1[C@H]1C[C@H](Nc2ncc3ccc(F)cc3n2)C1 [Example 109, 3-(trans-3-((7-fluoroquinazolin-2-yl)amino)cyclobutyl)-1H-imidazo[4,5-b]pyridin-2(3H)-one]
10 | 461 | O=c1[nH]c2cccnc2n1[C@H]1CC[C@H](Nc2ncc3ccccc3n2)CC1 [Example 110, 3-(trans-4-(quinazolin-2-ylamino)cyclohexyl)-1H-imidazo[4,5-b]pyridin-2(3H)-one]
11 | 1770 | O=c1[nH]c2cccnc2n1[C@H]1CC[C@H](Nc2ccc3ccc(F)cc3n2)CC1 [Example 111, 3-(trans-4-((7-fluoroquinolin-2-yl)amino)cyclohexyl)-1H-imidazo[4,5-b]pyridin-2(3H)-one]
12 | > 10 | O=c1[nH]c2cccnc2n1[C@H]1CC[C@H](Nc2ncc3ccc(Cl)cc3n2)CC1 [Example 112, 3-(trans-4-((7-chloroquinazolin-2-yl)amino)cyclohexyl)-1H-imidazo[4,5-b]pyridin-2(3H)-one]
13 | 77.1 | Nc1nn([C@H]2C[C@H](Nc3nc4ccccc4s3)C2)c2ncccc12 [Example 113, N-(trans-3-(3-amino-1H-pyrazolo[3,4-b]pyridin-1-yl)cyclobutyl)benzo[d]thiazol-2-amine]
14 | 0.152 | c1ccc2sc(N[C@H]3C[C@H](n4nc(C5CC5)c5cccnc54)C3)nc2c1 [Example 114, N-(trans-3-(3-cyclopropyl-1H-pyrazolo[3,4-b]pyridin-1-yl)cyclobutyl)benzo[d]thiazol-2-amine]
15 | 1.7 | FC(F)(F)c1nn([C@H]2C[C@H](Nc3nc4ccccc4s3)C2)c2ncccc12 [Example 115, N-(trans-3-(3-(trifluoromethyl)-1H-pyrazolo[3,4-b]pyridin-1-yl)cyclobutyl)benzo[d]thiazol-2-amine]
16 | 3.38 | CC(=O)N1CCC(Nc2nn([C@H]3C[C@H](Nc4nc5ccccc5s4)C3)c3ncccc23)CC1 [Example 116, 1-(4-((1-(trans-3-(benzo[d]thiazol-2-ylamino)cyclobutyl)-1H-pyrazolo[3,4-b]pyridin-3-yl)amino)piperidin-1-yl)ethanone]
17 | 3.26 | O=C(c1nc2ccccc2[nH]1)N1CC(n2c(=O)[nH]c3cccnc32)C1 [Example 117, 3-(1-(1H-benzo[d]imidazole-2-carbonyl)azetidin-3-yl)-1H-imidazo[4,5-b]pyridin-2(3H)-one]
18 | 1.69 | O=C(c1nc2ccccc2s1)N1CC(N2C(=O)C3(CC3)c3cccnc32)C1 [Example 118, 1′-(1-(benzo[d]thiazole-2-carbonyl)azetidin-3-yl)spiro[cyclopropane-1,3′-pyrrolo[2,3-b]pyridin-]-2′(1′H)-one]
19 | 8.85 | CC1(C)C(=O)N(C2CCN(C(=O)c3ccccn3)CC2)c2ncccc21 [Example 119, 3,3-dimethyl-1-(1-picolinoylpiperidin-4-yl)-1H-pyrrolo[2,3-b]pyridin-2(3H)-one]
20 | 0.315 | CC1(C)C(=O)N(C2CCN(c3ccccn3)CC2)c2ncccc21 [Example 120, 3,3-dimethyl-1-(1-(pyridin-2-yl)piperidin-4-yl)-1H-pyrrolo[2,3-b]pyridin-2(3H)-one]
21 | 0.049 | Cc1ccc(N2CCC(N3C(=O)C(C)(C)c4cccnc43)CC2)nc1 [Example 121, 3,3-dimethyl-1-(1-(5-methylpyridin-2-yl)piperidin-4-yl)-1H-pyrrolo[2,3-b]pyridin-2(3H)-one]
22 | 1.13 | COc1nc2cccnc2n1C1CCN(C(=O)c2nc3ccccc3[nH]2)CC1 [Example 122, (1H-benzo[d]imidazol-2-yl)(4-(2-methoxy-3H-imidazo[4,5-b]pyridine-3-yl)piperidin-1-yl)methanone]
23 | 2.24 | COc1nc2cccnc2n1C1CCN(c2nc3ccccc3s2)CC1 [Example 123, 2-(4-(2-methoxy-3H-imidazo[4,5-b]pyridine-3-yl)piperidin-1-yl)benzo[d]thiazole]
24 | 2.64 | COc1nc2cccnc2n1C1CCN(C(=O)c2nc3ccccc3s2)CC1 [Example 124, Benzo[d]thiazol-2-yl(4-(2-methoxy-3H-imidazo[4,5-b]pyridine-3-yl)piperidin-1-yl)methanone]
25 | 3.79 | COc1nc2cccnc2n1C1CCN(c2nc3ccccc3[nH]2)CC1 [Example 125, 3-(1-(1-H-Benzo[d]imidazol-2-yl)piperidin-4-yl)-2-methoxy-3H-imidazo[4,5-b]pyridine]
26 | 0.13 | COc1nc2cccnc2n1C1CN(c2ccc3ccccc3n2)C1 [Example 126, 2-(3-(2-methoxy-3H-imidazo[4,5-b]pyridin-3-yl)azetidin-1-yl)quinoline]
27 | 4.77 | COc1nc2cccnc2n1C1CN(c2nccc(C)n2)C1 [Example 127, 2-Methoxy-3-(1-(4-methylpyrimidin-2-yl)azetidin-3-yl)-3H-imidazo[4,5-b]pyridine]
28 | 23 | COc1nc2cccnc2n1C1CN(c2ncc(C)cn2)C1 [Example 128, 2-Methoxy-3-(1-(5-methylpyrimidin-2-yl)azetidin-3-yl)-3H-imidazo[4,5-b]pyridine]
29 | 1.13 | COc1nc2cccnc2n1C1CN(c2ncc3ccccc3n2)C1 [Example 129, 2-(3-(2-Methoxy-3H-imidazo[4,5-b]pyridin-3-yl)azetidin-1-yl)quinazoline]

Row | SMILES | IC50 [nM]
30 | O=c1oc2cccnc2n1[C@H]1C[C@H](Nc2nc3ccccc3s2)C1 [Example 100] | 10.3
